A short description of data set [1]: Cytotoxicity against human 1BR3 cells assessed as cell viability at 50 uM after 24 hrs by MTT assay. The format is cell-based. The following applies: read-out: Activity. (Tetrazolium assays rely on reduction of a dye to a coloured formazan, in cell work by metabolically active cells.)
Data set [2] can be described thus: Cytotoxicity against human 1BR3 cells assessed as cell viability at 100 uM after 24 hrs by MTT assay. The format is cell-based. Conditions: read-out: Activity.
Data set [3] in a line: Cytotoxicity against human 1BR3 cells assessed as cell viability at 20 uM after 24 hrs by MTT assay. The format is cell-based. Conditions: read-out: Activity.
The nature of data set [4]: Cytotoxicity against human 1BR3 cells assessed as cell viability at 1 uM after 24 hrs by MTT assay. The format is cell-based. Conditions: read-out: Activity.
Data set [5] is described as follows: Cytotoxicity against human 1BR3 cells assessed as cell viability at 10 uM after 24 hrs by MTT assay. The format is cell-based. The following applies: read-out: Activity.
Data set [6] concerns Rattus norvegicus. Kind of data set: Toxicity against Fischer-344 rat up to 0.1 mmol/kg, ip. The format is organism-based. Conditions: in vivo.
Data set [7] has as its system Rattus norvegicus. Kind of data set: Antiinflammatory activity in Fischer-344 rat assessed as inhibition of carrageenan-induced paw edema at 0.01 mmol/kg, ip after 3.5 hrs relative to control. Conditions: Fischer-344, ip. The format is functional. (The carrageenan paw model is a standard test of acute inflammation.)
Data set [8] is described as follows: Antioxidant activity assessed as inhibition of AAPH-induced linoleic acid lipid peroxidation at 100 uM by spectrophotometric analysis. The format is functional.
A short description of data set [9]: Inhibition of soybean LOX using sodium linoleate as substrate by spectrophotometric analysis. Details: species or system Glycine max. The following applies: read-out: IC50.
For data set [10], the system named is Radical scavenging activity. The data set can be described thus: Antioxidant activity assessed as DPPH radical scavenging activity at 100 uM after 60 mins by spectrophotometric analysis. The format is functional. A general note: Loss of DPPH colour is used to gauge radical scavenging.
Data set [11] has as its system Radical scavenging activity. Kind of data set: Antioxidant activity assessed as DPPH radical scavenging activity at 100 uM after 20 mins by spectrophotometric analysis. The format is functional.

What is called inhibition in vivo is the percentage by which the read-out fell short of the control. Broadly, the inhibition is the relative decrease from the control value, in per cent. What is called IC50 is the midpoint of a concentration-inhibition curve. As to `CCCCOC(=O)/C=C/c1c2ccoc2c(OC)c2oc(=O)ccc12`, the viability at 24 h, 50 µM in [1] was 98.9%. Further, the viability at 24 h, 100 µM in data set [2] turned out to be 90.3%. Besides, the viability at 24 h, 20 µM in data set [3] turned out to be 99.6%. The viability at 24 h, 1 µM in data set [4] is 96.7%. In addition, the viability at 24 h, 10 µM in [5] came out at 99.3%. Also, the Activity result is “Non-toxic” in the data set with Rattus norvegicus [6], 7% in [10] and 5% in data set [11]. Moreover, the inhibition in vivo at 10 µmol/kg in the data set with Rattus norvegicus [7] was determined as 57%. Also, the inhibition in data set [8] turned out to be 79%. In addition, the IC50 in data set [9] worked out at 6 µM.
Take `Cc1oc2c(C)c3oc(=O)cc(C)c3cc2c1/C=C/C(=O)OC(C)(C)C`: in data set [1], the viability at 24 h, 50 µM was found to be 34.6%. Besides, the viability at 24 h, 100 µM in [2] amounted to 22.2%. Further, in [3], the viability at 24 h, 20 µM turned out to be 37%. The viability at 24 h, 1 µM in data set [4] stood at 67.9%. The viability at 24 h, 10 µM in data set [5] stood at 55.6%. Besides, the figures for the Activity result (in the data set with Rattus norvegicus [6]; in data set [10]; in data set [11]) were “Non-toxic”, 11% and 11%, respectively. Besides, in the data set with Rattus norvegicus [7], the inhibition in vivo at 10 µmol/kg turned out to be 46%. In addition, the inhibition in data set [8] came to 80%. Moreover, in data set [9], the IC50 was determined as 9.4 µM.

The values are drawn from ChEMBL document CHEMBL2311494, “Syntheses and evaluation of the antioxidant activity of novel methoxypsoralen derivatives” (Eur J Med Chem, 2013).
